According to US8802664B2 (Bioproject, priority 2010, dated 2014):

molecular target: T1, human H4 receptor (Homo sapiens, UniProt Q9H3N8); assay: [3H]Histamine binding on membranes of CHO cells stably expressing human H4 receptor; conditions: not given
T1 construct: expressed in transfected cells
How it was run: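 First, thawed CHO membranes carrying human H4 were diluted to 20 μg protein per well in pH 7.4 Tris/EDTA buffer. Next, incubation was ended by rapid filtration through PEI-treated GF/B filters followed by cold rinses. Finally, retained radioactivity was counted; 10 μM JNJ 7777120 marked nonspecific binding.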

Row | SMILES | Ki or IC50 activity class [nM]
1 | CN1CCC(OC(c2cccc(N3CCC(F)(F)C3)c2)c2nc3ccccc3[nH]2)CC1 (centres unmarked) [Example 491] | < 1000
2 | CN1CCC(OC(c2cccc(SCCCCN)c2)c2nc3cc(F)c(F)cc3[nH]2)CC1 (centres unmarked) [Example 495] | < 30
3 | CN1CCC(OC(c2cccc(CCCNC(=O)OC(C)(C)C)c2)c2nc3ccccc3[nH]2)CC1 (centres unmarked) [Example 313, N-tert-butoxycarbonyl-N′-(3-{3-[(1H-benzimidazol-2-yl)(1-methylpiperidin-4-yloxy)methyl]phenyl}propyl)amine] | < 300
4 | CN1CCC(OC(c2cccc(C#CCCCNC(=N)NC(=O)OC(C)(C)C)c2)c2nc3ccccc3[nH]2)CC1 (centres unmarked) [Example 357, N-tert-butoxycarbonyl-N′-(5-{3-[(1H-benzimidazol-2-yl)(1-methylpiperidin-4-yloxy)methyl]phenyl}pent-4-ynyl)guanidine] | < 300
5 | COc1ccc(F)c(C(OC2CCN(C)CC2)c2nc3ccccc3[nH]2)c1 (centres unmarked) [Example 486] | < 30
6 | CN1CCC(OC(c2nc3ccccc3[nH]2)c2cc(OC(F)(F)F)ccc2Cl)CC1 (centres unmarked) [Example 524] | < 300
7 | CN1CCC(OC(c2cccc(CCCCN)c2)c2nc3ccccc3[nH]2)CC1 (centres unmarked) [Example 293, 4-{3-[(1H-benzimidazol-2-yl)(1-methylpiperidin-4-yloxy)methyl]phenyl}butylamine] | < 300
8 | CN1CCC(OC(c2cccc(OCCCCn3cncn3)c2)c2nc3ccccc3s2)CC1 (centres unmarked) [Example 316, 2-{(1-methylpiperidin-4-yloxy)[3-(4-[1,2,4]triazol-1-yl-butoxy)phenyl]methyl}benzothiazole] | < 300
9 | CN1CCC(OC(c2cccc(OCCCCN3CCOCC3)c2)c2nc3ccccc3[nH]2)CC1 (centres unmarked) [Example 332, 2-{(1-methylpiperidin-4-yloxy)[3-(4-morpholin-4-yl-butoxy)phenyl]methyl}-1H-benzimidazole] | < 1000
10 | CN1CCC(OC(c2cccc(C3CCN(C(=N)N)CC3)c2)c2nc3ccccc3[nH]2)CC1 (centres unmarked) [Example 394, 4-{3-[(1H-benzimidazol-2-yl)(1-methylpiperidin-4-yloxy)methyl]phenyl}piperidine-1-carboxamidine] | < 1000
11 | CN1CCC(OC(c2cccc(OCCCN3CCN(C(=O)OC(C)(C)C)CC3)c2)c2nc3ccccc3[nH]2)CC1 (centres unmarked) [Example 360, 4-(3-{3-[(1H-benzimidazol-2-yl)(1-methylpiperidin-4-yloxy)methyl]phenoxy}propyl)piperazine-1-carboxylic acid tert-butyl ester] | < 1000
12 | CN1CCC(OC(c2cccc(SCCCCCO)c2)c2nc3ccccc3[nH]2)CC1 (centres unmarked) [Example 445, 5-{3-[(1H-benzimidazol-2-yl)(1-methylpiperidin-4-yloxy)methyl]phenylsulfanyl}pentan-1-ol] | < 300
13 | CN1CCC(OC(c2nc3ccccc3[nH]2)c2cc(C#CCCCCN)ccc2F)CC1 (centres unmarked) [Example 557, 6-{3-[(1H-benzimidazol-2-yl)(1-methylpiperidin-4-yloxy)methyl]-4-fluorophenyl}hex-5-ynylamine] | < 30
14 | CN1CCC(OC(c2cccc(C=C3NC(=N)NC3=O)c2)c2nc3ccccc3[nH]2)CC1 (centres unmarked) [Example 505, 5-{3-[(1H-benzimidazol-2-yl)(1-methylpiperidin-4-yloxy)methyl]benzylidene}-2-iminoimidazolidin-4-one] | < 1000
15 | CN1CCC(OC(c2cccc(OCCCCN)c2)c2nc3ccccc3[nH]2)CC1 (centres unmarked) [Example 331, 4-{3-[(1H-benzimidazol-2-yl)(1-methylpiperidin-4-yloxy)methyl]phenoxy}butylamine] | < 300
16 | CN1CCC(OC(c2cccc(SCCCCN)c2)c2nc3ccccc3[nH]2)CC1 (centres unmarked) [Example 326, 4-{3-[(1H-benzimidazol-2-yl)(1-methylpiperidin-4-yloxy)methyl]phenylsulfanyl}butylamine] | < 30
17 | CN1CCC(OC(c2cccc(C#CCCCCN)c2)c2nc3ccccc3n2C)CC1 (centres unmarked) [Example 480, 6-{3-[(1-methyl-1H-benzimidazol-2-yl)(1-methylpiperidin-4-yloxy)methyl]phenyl}hex-5-ynylamine] | < 300

Second part, the compound after the results:

Row | Ki or IC50 activity class [nM] | SMILES
18 | < 300 | Cc1ccc(C(OC2CCN(C)CC2)c2nc3ccccc3s2)cc1 (centres unmarked) [Example 7, 2-[(1-methylpiperidin-4-yloxy)-p-tolylmethyl]benzothiazole]
19 | < 300 | COc1cccc(-c2cccc(C(OC3CCN(C)CC3)c3nc4ccccc4s3)c2)c1 (centres unmarked) [Example 99, 2-[(3′-methoxybiphenyl-3-yl)(1-methylpiperidin-4-yloxy)methyl]benzothiazole]
20 | < 300 | CC(=O)COCC#Cc1cccc(C(OC2CCN(C)CC2)c2nc3ccccc3s2)c1 (centres unmarked) [Example 275, 1-(3-{3-[benzothiazol-2-yl(1-methylpiperidin-4-yloxy)methyl]phenyl}prop-2-ynyloxy)-propan-2-one]
21 | < 300 | CN1CCC(OC(c2cccc(OCCN3CCNCC3)c2)c2nc3ccccc3s2)CC1 (centres unmarked) [Example 330, 2-{(1-methylpiperidin-4-yloxy)[3-(2-piperazin-1-yl-ethoxy)phenyl]methyl}benzothiazole]
22 | < 30 | CN1CCC(NC(c2ccccc2)c2nc3ccccc3s2)CC1 (centres unmarked) [Example 9, (benzothiazol-2-yl-phenylmethyl)(1-methylpiperidin-4-yl)amine]
23 | < 300 | CN1CCC(NC(c2cccc(Br)c2)c2nc3ccccc3s2)CC1 (centres unmarked) [Example 82, [benzothiazol-2-yl(3-bromophenyl)methyl](1-methylpiperidin-4-yl)amine]
24 | < 300 | CN1CCC(OC(c2cccc(NCc3ccccc3)c2)c2nc3ccccc3s2)CC1 (centres unmarked) [Example 234, {3-[benzothiazol-2-yl(1-methylpiperidin-4-yloxy)methyl]phenyl}benzyl-amine]
25 | < 300 | CN1CCC(OC(c2cccc(N3CCC(CO)C3)c2)c2nc3ccccc3s2)CC1 (centres unmarked) [Example 404, (1-{3-[benzothiazol-2-yl(1-methylpiperidin-4-yloxy)methyl]phenyl}pyrrolidin-3-yl)methanol]
26 | < 30 | CN1CCC(OC(c2cccc(SCCCO)c2)c2nc3ccccc3s2)CC1 (centres unmarked) [Example 254, 3-{3-[benzothiazol-2-yl(1-methylpiperidin-4-yloxy)methyl]phenylsulfanyl}propan-1-ol]
27 | < 30 | COc1cccc(COc2cccc(C(OC3CCN(C)CC3)c3nc4ccccc4s3)c2)c1 (centres unmarked) [Example 185, 2-[[3-(3-methoxybenzyloxy)phenyl](1-methylpiperidin-4-yloxy)methyl]benzothiazole]
28 | < 1000 | CN1CCC(OC(c2cccc(N3CC4CN(C)CC4C3)c2)c2nc3ccccc3s2)CC1 (centres unmarked) [Example 485]
29 | < 1000 | CN1CCC(OC(c2ccc(OC(F)(F)F)cc2)c2nc3ccccc3s2)CC1 (centres unmarked) [Example 24, 2-[(1-methylpiperidin-4-yloxy)(4-trifluoromethoxyphenyl)methyl]benzothiazole]
30 | < 30 | CSc1cccc(C(NC2CCN(C)CC2)c2nc3ccccc3s2)c1 (centres unmarked) [Example 111, [benzothiazol-2-yl(3-methylsulfanylphenyl)methyl](1-methylpiperidin-4-yl)amine]
31 | < 300 | CN1CCC(OC(c2cccc(SCCc3cnccn3)c2)c2nc3ccccc3s2)CC1 (centres unmarked) [Example 233, 2-{(1-methylpiperidin-4-yloxy)[3-(2-pyrazin-2-yl-ethylsulfanyl)phenyl]methyl}benzothiazole]
32 | < 300 | CN1CCC(OC(c2cccc(C#CCCCCNC(=N)N)c2)c2nc3ccccc3s2)CC1 (centres unmarked) [Example 342, N-(6-{3-[benzothiazol-2-yl(1-methylpiperidin-4-yloxy)methyl]phenyl}hex-5-ynyl)guanidine]
33 | < 1000 | CN1CCC(NC(c2cc3ccccc3o2)c2nc3ccccc3s2)CC1 (centres unmarked) [Example 37, [(benzofuran-2-yl)(benzothiazol-2-yl)methyl](1-methylpiperidin-4-yl)amine]
34 | < 1000 | CN1CCC(OC(c2cccc(C=CC(=O)OC(C)(C)C)c2)c2nc3ccccc3s2)CC1 (centres unmarked) [Example 205, 3-{3-[benzothiazol-2-yl(1-methylpiperidin-4-yloxy)methyl]phenyl}acrylic acid tert-butyl ester]
35 | < 300 | COc1ccc(-c2cccc(C(NC3CCN(C)CC3)c3nc4ccccc4s3)c2)cc1 (centres unmarked) [Example 211, [benzothiazol-2-yl(4′-methoxybiphenyl-3-yl)methyl](1-methylpiperidin-4-yl)amine]
36 | < 1000 | C=CCOc1cccc(C(NC2CCN(C)CC2)c2nc3ccccc3[nH]2)c1 (centres unmarked) [Example 112, [(3-allyloxyphenyl)(1H-benzimidazol-2-yl)methyl](1-methylpiperidin-4-yl)amine]
37 | < 30 | CN1CCC(OC(c2cccc(OCc3cccc(N)c3)c2)c2nc3ccccc3s2)CC1 (centres unmarked) [Example 228, 3-{3-[benzothiazol-2-yl(1-methylpiperidin-4-yloxy)methyl]phenoxymethyl}phenylamine]
38 | < 30 | CN1CCC(OC(c2ccc3cc[nH]c3c2)c2nc3ccccc3[nH]2)CC1 (centres unmarked) [Example 550, 2-[(1H-indol-6-yl)(1-methylpiperidin-4-yloxy)methyl]-1H-benzimidazole]
39 | < 1000 | CNCCOc1cccc(C(OC2CCN(C)CC2)c2nc3ccccc3s2)c1 (centres unmarked) [Example 279, (2-{3-[benzothiazol-2-yl(1-methylpiperidin-4-yloxy)methyl]phenoxy}ethyl)methyl-amine]
40 | < 30 | CC(O)COCC#Cc1cccc(C(OC2CCN(C)CC2)c2nc3ccccc3s2)c1 (centres unmarked) [Example 276, 1-(3-{3-[benzothiazol-2-yl(1-methylpiperidin-4-yloxy)methyl]phenyl}prop-2-ynyloxy)-propan-2-ol]

same assay, conditions: human H4 receptor; evaluated in the GTPγ[35S] assay or in the [3H]histamine binding assay (not stated which per compound); Ki or IC50 class

Row | Ki or IC50 activity class [nM] | SMILES
41 | < 30 | CN1CCC(OC(c2cccc(I)c2)c2nc3ccccc3s2)CC1 (single isomer, unassigned) [Example 118, 2-[(3-iodophenyl)(1-methylpiperidin-4-yloxy)methyl]benzothiazole]
